Experimental data from patent US20230173090A1, “COMPOSITIONS AND METHODS FOR MODULATING DOPAMINE RECEPTOR ACTIVITY” (The Regents of the University of California, priority 2020, published 2023).

Biological target: T1, D1R (Homo sapiens, UniProt P21728)
T1 construct: expressed in transfected cells; host or cells: HEK293T (A1, A2); HEK293 (A26)
Experiment: D1R-mediated cAMP accumulation assay (BRET sensor CAMYEL) in HEK293T cells
Type: cell-based
Conditions: FIGS. 9A-9H
Source text: FIGS. 9A-9H. Functional properties of untethered P-D1ago. (A) Schematic representation of a D1R-mediated G protein-coupled inwardly rectifying potassium (GIRK) channel assay in HEK293T cells. Agonist-induced receptor activation results in the recruitment of a heterotrimeric G protein containing the chimeric Gα subunit (Gαis) followed by the release of Gβγ, which activates GIRK channels and enhances inward-current. […]. (C) Representative traces of the effect of untethered P-D1ago on D1R in the absence of the membrane-anchor (M) according to the GIRK assay. […] (D) Summary of the functional effect of untethered P-D1ago on D1R in the GIRK assay. n = 4-5 cells per condition. (E) Schematic representation of a highly sensitive D1R-mediated cAMP accumulation assay in HEK293T cells. Agonist-induced D1R activation results in Gs/olfrecruitment followed by the binding of its Gα subunit to adenylate cyclase (AC), which enhances the conversion of ATP to cAMP. cAMP binds the bioluminescence resonance energy transfer 1 (BRET′)-based cAMP sensor CAMYEL^87, resulting in a conformational change in its Epac domain that increases the distance and decreases BRET^1 between the donor Renilla luciferase (Rluc) and the acceptor YFP. […]

T1 sequence (P21728 whole entry): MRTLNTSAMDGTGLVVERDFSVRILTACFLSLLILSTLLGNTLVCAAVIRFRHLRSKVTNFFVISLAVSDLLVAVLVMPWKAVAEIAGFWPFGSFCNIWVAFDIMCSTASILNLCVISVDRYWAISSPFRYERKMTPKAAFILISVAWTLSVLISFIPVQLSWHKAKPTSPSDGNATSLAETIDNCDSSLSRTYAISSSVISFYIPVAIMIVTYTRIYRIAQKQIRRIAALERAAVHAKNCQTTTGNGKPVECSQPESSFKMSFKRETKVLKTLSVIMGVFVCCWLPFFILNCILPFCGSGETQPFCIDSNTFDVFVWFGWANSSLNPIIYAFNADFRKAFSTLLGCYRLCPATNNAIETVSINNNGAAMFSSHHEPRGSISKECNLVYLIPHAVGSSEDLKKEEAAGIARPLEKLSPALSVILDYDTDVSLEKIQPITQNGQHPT

CCCN(CCc1ccc(N=Nc2ccc(NC(=O)CNC(=O)CCOCCOCCOCCOCCOCCOCCOCCOCCOCCOCCOCCOCCn3cc(CCC(=O)NCc4ccc(COc5nc(N)nc6nc[nH]c56)cc4)nn3)cc2)cc1)C1CCc2c(O)cccc2C1 (stereo not shown) [P-D1ago, Benzylguanine-azobenzene-PPHT]
agonist profile at D1R in untethered form: low potency full agonist
